Measured values: patent US20250387403A1, “SELECTIVE SIGMA-2 RECEPTOR LIGANDS AS MODULATORS OF TMEM97” (BOARD OF REGENTS, THE UNIVERSITY OF TEXAS SYSTEM, priority 2022, published 2025)

Experiments:
neurite outgrowth = assay: Neurite outgrowth; type: cell-based
[1] = test system: integrated stress response; assay: Integrated stress response; type: cell-based
[2] = test system: spared nerve injury (SNI) model; assay: Spared nerve injury (SNI) neuropathic pain model; type: in vivo, mice
[3] = test system: primary cortical neurons transfected with plasmids expressing mHTT (Htt-N586-82Q); assay: mHTT-induced toxicity in transfected primary cortical neurons (HD cell model); type: cell-based
Description: Toward testing the hypothesis that selective modulators of σ2R/TMEM97 have neuroprotective attributes in Huntington's disease, a small panel of compounds were evaluated with differing affinities and selectivities for σ2R/TMEM97 in a primary neuron model of HD. […] In the present disclosure, these compounds are tested in an HD cell model to assess the effects of these compounds upon mHTT-induced neuronal toxicity. Briefly, primary neurons were co-transfected with plasmid expression of a 586 N-terminal Htt polypeptide with either normal Q (Htt-N586-22Q) or expanded Q (Htt-N586-82Q) repeats and green fluorescent protein (GFP).
Stock solutions of σ2R/TMEM97 modulators were prepared by dissolving the compound in DMSO to a concentration of 10 mM. For the in vitro assays, the stock solution was diluted with culture medium (1:1000) to a working concentration of 10 μM of σ2R/TMEM97 modulator. Serial dilutions were then performed using culture medium to prepare other concentrations of the modulator. The final DMSO concentration is less than 0.1%. The vehicle group was performed using 0.1% DMSO in culture medium.
To assess the possible neuroprotective effects of selective σ2R/TMEM97 modulators in neurodegenerative processes associated with HD, a cell model was used that has been previously described (Arbez et al, 2017).

[4] = test system: spared nerve injury (SNI) model; conditions: earlier studies (Sahn et al, 2017); cited from earlier work

| Structure (SMILES) | effect on neurite outgrowth (neurite outgrowth) | effect on the integrated stress response [1] | analgesic effect after SNI ([2]; global σ2R/TMEM97 knockout mouse) | mechanical hypersensitivity after SNI ([2]; wild-type male and female mice) | neuroprotection against mHTT-induced neuronal toxicity ([3]; concentrations 0.01-10 μM) | intrinsic toxicity ([3]; primary cortical neurons) | pain relief in the SNI model [4] |
| --- | --- | --- | --- | --- | --- | --- | --- |
| OCCCN1CC[C@@H]2C[C@H]1c1cc(-c3ccc(C(F)(F)F)cc3)ccc12 [FEM-1689, 3-((1S,5R)-8-(4-(Trifluoromethyl)phenyl)-1,3,4,5-tetrahydro-2H-1,5-methanobenzo[c]azepin-2-yl) propan-1-ol] | promotes neurite outgrowth | inhibits the integrated stress response | fails to produce an analgesic effect | reverses mechanical hypersensitivity |  |  |  |
| OCCCN1CCCC2CC1c1cc(-c3ccc(C(F)(F)F)cc3)ccc12 (stereo not shown) [UKH-1114] |  |  |  |  | significant neuroprotection in a dose dependent fashion | None of these compounds appear to exhibit any intrinsic toxicity | relieved pain |
